Reference: the kinase profiling compilation of Christmann-Franck et al. (2016)

How the values were obtained:
Experiment in all cases: KINOMEscan competition binding
Settings in all cases: compound 1.0 µM
[1] = test system: EGFR (human), P00533 [A750P; 747-749 del]
[2] = target: PHKG2 (human) (UniProt P15735)
[3] = test system: EGFR (human), P00533 [T790M/L858R]
[4] = target: DAPK3 (human) (UniProt O43293)
[5] = target: PTK2 (human) (UniProt Q05397)
[6] = target: CDK17 (human) (UniProt Q00537)
[7] = target: CSF1R (human) (UniProt P07333)
CSF1R (human), sequence (P07333 whole entry, looked up): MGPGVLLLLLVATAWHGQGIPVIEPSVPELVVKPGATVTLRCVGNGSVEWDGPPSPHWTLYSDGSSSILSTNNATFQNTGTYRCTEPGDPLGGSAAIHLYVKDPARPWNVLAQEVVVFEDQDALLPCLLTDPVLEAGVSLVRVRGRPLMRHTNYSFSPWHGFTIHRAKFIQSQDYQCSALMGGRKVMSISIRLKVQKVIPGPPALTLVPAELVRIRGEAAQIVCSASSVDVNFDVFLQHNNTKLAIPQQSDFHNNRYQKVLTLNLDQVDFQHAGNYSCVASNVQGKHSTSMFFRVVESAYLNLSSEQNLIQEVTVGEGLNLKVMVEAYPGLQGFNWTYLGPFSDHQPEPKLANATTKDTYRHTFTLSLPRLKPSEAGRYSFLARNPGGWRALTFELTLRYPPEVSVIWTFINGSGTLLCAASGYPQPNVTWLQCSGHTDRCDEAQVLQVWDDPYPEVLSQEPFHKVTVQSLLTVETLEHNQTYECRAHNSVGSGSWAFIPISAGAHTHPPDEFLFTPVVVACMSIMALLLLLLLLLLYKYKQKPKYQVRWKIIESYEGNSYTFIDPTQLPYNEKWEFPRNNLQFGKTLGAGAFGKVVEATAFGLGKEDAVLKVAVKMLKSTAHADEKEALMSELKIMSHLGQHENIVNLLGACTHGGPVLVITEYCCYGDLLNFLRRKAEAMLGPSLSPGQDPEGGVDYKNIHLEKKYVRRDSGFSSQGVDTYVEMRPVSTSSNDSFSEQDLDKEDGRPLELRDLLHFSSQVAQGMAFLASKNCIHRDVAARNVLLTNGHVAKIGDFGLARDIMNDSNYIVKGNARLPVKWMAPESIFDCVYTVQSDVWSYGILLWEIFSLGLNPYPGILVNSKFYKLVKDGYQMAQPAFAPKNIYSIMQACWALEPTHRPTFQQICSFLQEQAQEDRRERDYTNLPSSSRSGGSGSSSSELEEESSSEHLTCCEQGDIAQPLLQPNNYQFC

[8] = target: CHEK1 (human) (UniProt O14757)
CHEK1 (human), sequence (O14757 whole entry, looked up): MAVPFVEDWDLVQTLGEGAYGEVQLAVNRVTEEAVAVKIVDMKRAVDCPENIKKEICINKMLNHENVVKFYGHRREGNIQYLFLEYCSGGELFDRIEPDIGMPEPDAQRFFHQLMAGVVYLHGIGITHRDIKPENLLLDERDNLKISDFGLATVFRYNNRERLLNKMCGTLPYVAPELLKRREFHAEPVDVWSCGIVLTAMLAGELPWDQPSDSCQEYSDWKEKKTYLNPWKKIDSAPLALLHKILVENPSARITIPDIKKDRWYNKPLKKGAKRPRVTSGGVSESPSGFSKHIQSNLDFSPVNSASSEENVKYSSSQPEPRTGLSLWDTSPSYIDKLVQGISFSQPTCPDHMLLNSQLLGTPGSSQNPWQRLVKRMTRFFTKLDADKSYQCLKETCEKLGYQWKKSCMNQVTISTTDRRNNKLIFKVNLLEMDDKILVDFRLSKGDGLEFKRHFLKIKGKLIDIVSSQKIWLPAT

PTK2 (human), sequence (Q05397 whole entry, looked up): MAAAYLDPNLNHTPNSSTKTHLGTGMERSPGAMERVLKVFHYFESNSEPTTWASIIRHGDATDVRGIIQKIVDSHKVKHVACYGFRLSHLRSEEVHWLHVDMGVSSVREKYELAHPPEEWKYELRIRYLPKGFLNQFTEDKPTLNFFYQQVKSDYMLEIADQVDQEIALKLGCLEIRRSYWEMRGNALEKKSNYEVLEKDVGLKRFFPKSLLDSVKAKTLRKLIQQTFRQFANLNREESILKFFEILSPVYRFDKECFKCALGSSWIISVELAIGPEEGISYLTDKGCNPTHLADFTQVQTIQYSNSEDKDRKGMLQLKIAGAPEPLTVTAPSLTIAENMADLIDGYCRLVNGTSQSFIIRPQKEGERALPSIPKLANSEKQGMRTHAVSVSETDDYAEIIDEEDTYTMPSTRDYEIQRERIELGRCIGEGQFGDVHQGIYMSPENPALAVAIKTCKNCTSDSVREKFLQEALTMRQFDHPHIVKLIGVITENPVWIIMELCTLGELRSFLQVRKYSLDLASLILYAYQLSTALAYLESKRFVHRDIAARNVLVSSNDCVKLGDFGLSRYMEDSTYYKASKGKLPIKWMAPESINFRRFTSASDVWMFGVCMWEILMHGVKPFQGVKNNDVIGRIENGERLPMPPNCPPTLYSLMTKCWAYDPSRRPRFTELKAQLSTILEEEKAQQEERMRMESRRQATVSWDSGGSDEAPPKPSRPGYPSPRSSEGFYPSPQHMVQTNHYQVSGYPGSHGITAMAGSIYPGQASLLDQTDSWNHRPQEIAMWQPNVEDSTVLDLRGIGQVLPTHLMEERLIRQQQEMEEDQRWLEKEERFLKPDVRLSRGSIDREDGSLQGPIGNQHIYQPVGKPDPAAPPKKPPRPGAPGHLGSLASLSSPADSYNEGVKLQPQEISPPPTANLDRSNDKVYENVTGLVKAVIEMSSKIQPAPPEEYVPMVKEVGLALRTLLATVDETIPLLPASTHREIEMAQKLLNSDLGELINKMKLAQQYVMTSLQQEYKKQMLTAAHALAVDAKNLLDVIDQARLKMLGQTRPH
CDK17 (human), sequence (Q00537 whole entry, looked up): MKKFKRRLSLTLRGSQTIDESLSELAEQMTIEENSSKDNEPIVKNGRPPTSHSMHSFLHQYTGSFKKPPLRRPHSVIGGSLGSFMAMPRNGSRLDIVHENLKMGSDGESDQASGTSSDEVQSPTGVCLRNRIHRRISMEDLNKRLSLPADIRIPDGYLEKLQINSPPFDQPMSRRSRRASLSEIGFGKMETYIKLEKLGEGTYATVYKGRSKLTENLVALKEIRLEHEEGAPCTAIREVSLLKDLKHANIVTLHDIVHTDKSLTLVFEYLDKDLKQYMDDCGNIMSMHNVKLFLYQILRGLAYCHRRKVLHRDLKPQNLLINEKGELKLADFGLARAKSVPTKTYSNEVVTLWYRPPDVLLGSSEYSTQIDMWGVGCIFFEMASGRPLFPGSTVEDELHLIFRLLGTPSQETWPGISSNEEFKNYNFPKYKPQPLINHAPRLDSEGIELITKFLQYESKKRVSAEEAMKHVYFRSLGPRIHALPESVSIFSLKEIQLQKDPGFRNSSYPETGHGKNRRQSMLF
PHKG2 (human), sequence (P15735 whole entry, looked up): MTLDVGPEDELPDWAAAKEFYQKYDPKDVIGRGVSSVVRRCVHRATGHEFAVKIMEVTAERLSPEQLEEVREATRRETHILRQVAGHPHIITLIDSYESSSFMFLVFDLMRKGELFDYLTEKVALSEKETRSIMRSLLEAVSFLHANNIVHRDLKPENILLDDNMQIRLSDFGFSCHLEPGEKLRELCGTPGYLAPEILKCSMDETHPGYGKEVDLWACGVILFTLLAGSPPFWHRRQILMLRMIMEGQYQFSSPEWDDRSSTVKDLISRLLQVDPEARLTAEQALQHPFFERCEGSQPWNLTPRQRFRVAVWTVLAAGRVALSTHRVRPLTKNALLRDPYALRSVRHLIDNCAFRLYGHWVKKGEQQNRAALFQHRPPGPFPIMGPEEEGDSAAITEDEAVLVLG
EGFR (human), P00533 [T790M/L858R], sequence (P00533 whole entry T790M/L858R, looked up): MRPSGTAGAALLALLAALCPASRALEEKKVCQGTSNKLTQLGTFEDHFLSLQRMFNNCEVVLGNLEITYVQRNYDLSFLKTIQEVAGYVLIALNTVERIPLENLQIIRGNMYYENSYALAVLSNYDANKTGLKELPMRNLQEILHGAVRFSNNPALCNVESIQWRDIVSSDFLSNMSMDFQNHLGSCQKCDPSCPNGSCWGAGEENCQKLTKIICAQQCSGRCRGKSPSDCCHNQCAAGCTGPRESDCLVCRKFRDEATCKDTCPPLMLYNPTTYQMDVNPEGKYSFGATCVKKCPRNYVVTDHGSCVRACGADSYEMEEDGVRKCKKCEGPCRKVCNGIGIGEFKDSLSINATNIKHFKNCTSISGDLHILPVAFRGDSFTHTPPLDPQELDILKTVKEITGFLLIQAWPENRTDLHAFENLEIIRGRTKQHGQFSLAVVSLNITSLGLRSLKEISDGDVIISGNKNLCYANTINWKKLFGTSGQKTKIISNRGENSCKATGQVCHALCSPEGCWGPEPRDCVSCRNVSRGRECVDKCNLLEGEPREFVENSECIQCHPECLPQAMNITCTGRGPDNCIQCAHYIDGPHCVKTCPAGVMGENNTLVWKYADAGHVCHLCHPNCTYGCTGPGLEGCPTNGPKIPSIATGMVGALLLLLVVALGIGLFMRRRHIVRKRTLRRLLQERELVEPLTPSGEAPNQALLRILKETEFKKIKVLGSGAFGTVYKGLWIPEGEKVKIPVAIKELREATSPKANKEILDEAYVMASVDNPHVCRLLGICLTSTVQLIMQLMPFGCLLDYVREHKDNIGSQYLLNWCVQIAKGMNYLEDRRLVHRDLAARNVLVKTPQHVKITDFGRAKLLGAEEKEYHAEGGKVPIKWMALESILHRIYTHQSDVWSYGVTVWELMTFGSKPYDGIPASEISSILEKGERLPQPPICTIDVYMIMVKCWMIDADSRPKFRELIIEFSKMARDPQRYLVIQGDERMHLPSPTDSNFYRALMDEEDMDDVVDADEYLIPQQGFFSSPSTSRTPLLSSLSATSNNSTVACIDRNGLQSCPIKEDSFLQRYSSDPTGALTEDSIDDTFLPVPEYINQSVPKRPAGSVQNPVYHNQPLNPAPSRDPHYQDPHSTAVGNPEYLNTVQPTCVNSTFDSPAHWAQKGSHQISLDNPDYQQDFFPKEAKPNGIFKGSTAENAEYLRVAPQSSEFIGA

Structure (SMILES): Nc1cc(C(F)(F)F)c(-c2cc(N3CCOCC3)nc(N3CCOCC3)n2)cn1
- inhibition of binding [1]: 0%
- inhibition of binding [2]: 11%
- inhibition of binding [3]: 0%
- inhibition of binding [4]: 10%
- inhibition of binding [5]: 21%
- inhibition of binding [6]: 26%
- inhibition of binding [7]: 0%
- inhibition of binding [8]: 1%
